PMC10518255, “A first-in-class pan-lysyl oxidase inhibitor impairs stromal remodeling and enhances gemcitabine response and survival in pancreatic cancer” (Nature Cancer, 2023)
“And” between values parts separate entries of the source, which are not always exact repeats. Equal entries are not always repeated.

System: α-SMA
Test: Immunohistochemistry of end-point KPC tumors: myCAF marker
Type: in vivo, mouse
Settings: for Percent coverage of aSMA positive staining: Extended Data 6B, KPC tumours at endpoint, individual FOV
Protocol: All tissues or matrices, including patient TMAs, were fixed in 10% buffered formalin and embedded in paraffin. The 4-μm sections of samples were deparaffinized with xylene and rehydrated in graded ethanol washes. For immunohistochemistry, Bond Dewax Solution (AR9222) was used. Antigen retrieval was performed using Bond RX H2(30) protocol: HIER 30 min ER1 (citrate pH 6) OR ER2 (EDTA pH 9) at 100 °C. Slides were quenched in BOND Polymer Refine Detection (Leica Biosystems DS9800). […] Slides were digitized on an Aperio slide scanner and representative areas per tumor acquired and analyzed by researchers blinded to the conditions of the experiment.
Extended Data Fig. 6 PXS-5505 in combination with gemcitabine in a KPC model. a. Quantification of proliferating cells (Ki67 positive nuclear staining) in KPC tumors at end point, treated as indicated. 5 fields of view (500 μm × 500 μm) per mouse and 10 mice per cohort were scored. […] Quantification of percent coverage of αSMA positive staining in KPC tumors at end point, treated as indicated. 3 fields of view (1000 μm × 1000 μm) per mouse and 10 mice per cohort were scored. […] Quantification of percent coverage of PDGFR-ß positive staining in KPC tumors at end point, treated as indicated. 3 fields of view (1000 μm × 1000 μm) per mouse and 10 mice per cohort were scored. […] Quantification of pMLC2 positive staining in stromal regions of KPC tumors at end point, treated as indicated. 3 fields of view (500 μm × 500 μm) per mouse and 10 mice per cohort were scored. […] Quantification of tumor vasculature (CD31 positive staining) in KPC tumors at end point, treated as indicated. 3 fields of view (1000 μm × 1000 μm) per mouse and 10 mice per cohort were scored. […] Quantification of STAT3 activation (pSTAT3 positive nuclear staining) in KPC tumors at end point, treated as indicated. 3 fields of view (1000 μm × 1000 μm) per mouse and 5 mice per cohort were scored. […] Scale bars = 100 μm. g Quantification of macrophage infiltration (F4/80 positive staining) in KPC tumors at end point, treated as indicated. […]

| Structure (SMILES) | Percent coverage of aSMA positive staining | α-SMA positivity (KPC tumors at end point) |
| --- | --- | --- |
| Nc1ccn([C@@H]2O[C@H](CO)[C@@H](O)C2(F)F)c(=O)n1 [Gem, gemcitabine] | 4.1422% and 8.8428% and 3.9128% and 4.9851% and 3.7908% and 3.4102% and 13.5235% and 10.8353% and 9.6686% and 1.9907% and 2.1823% and 5.2926% and 3.0437% and 5.4036% and 4.2058% and 8.1217% and 4.3012% and 3.1567% and 3.0046% and 1.1246% and 5.0654% and 7.8034% and 8.097% and 1.0094% and 7.1387% and 7.3633% and 7.7939% and 1.1199% and 2.3003% and 3.6904% | small decreases in positivity |
| Cl.Cl.NC/C=C(\F)CS(=O)(=O)c1cccc2cccnc12.O [PXS-5505, (Z)-3-fluoro-4-(quinolin-8-ylsulfonyl)but-2-en-1-amine dihydrochloride monohydrate] | 3.0735% and 6.2874% and 6.4326% and 3.0495% and 2.5796% and 2.9175% and 6.2269% and 8.7759% and 5.9209% and 8.6578% and 7.7662% and 8.3469% and 5.6452% and 6.7775% and 4.6186% and 7.36% and 5.232% and 2.4577% and 4.7266% and 9.579% and 5.032% and 5.1635% and 4.6717% and 8.3034% and 3.41% and 6.5089% and 4.6457% and 1.885% and 5.2516% and 5.0893% |  |
